US9556135B2, “Amino-dihydrothiazine and amino-dioxido dihydrothiazine compounds as beta-secretase antagonists and methods of use” (Amgen Inc., priority 2012, dated 2017)
Where two headings read alike, the source gives them in different places.

Assays:
Cathepsin D (Cat D) = Cathepsin D (Cat D) (Homo sapiens (Human), UniProt P07339); assay: In vitro enzymatic Cathepsin D (Cat D) FRET assay; assay type: biochemical; details: read-out: CatD IC50
Method: In Vitro Enzymatic Cathepsin D (Cat D) FRET (Fluorescence Resonance Energy Transfer) Assay Recombinant Cat D was expressed in CHO cells. […] The Cat D enzyme (9 nM) is pre-incubated for one hour with inhibitors, typically in about 1 uL of DMSO according to a serial dilution, is added thereto. […] The FRET assay is terminated with by addition of Tris buffer, which raises the pH to neutrality, and the fluorescence is determined. The FRET substrate is a peptide with commercially available fluorophore and quencher, on opposite sides of the BACE cleavage site. The Cat D substrate peptide sequence is based on sequence #1 of Table 1 from Gulnik et al. […] Where available, the in-vitro Cat D FRET assay data for each of the Examples, conducted by the first procedure, is provided.

[1] = molecular target: Beta Secretase enzyme (BACE1) (Homo sapiens (Human), UniProt P56817); assay: In vitro enzymatic BACE FRET assay; assay type: biochemical
Method: In Vitro Enzymatic BACE FRET (Fluorescence Resonance Energy Transfer) Assay (Enzyme Assay Data in the Example Tables I and II)
The assay buffer used in this screen is 0.05 M acetate, pH 4.2, 10% DMSO final, 100 uM genapol (which is a nonionic detergent, below its Critical Micelle Concentration). […] This assay is effectively started by the addition of FRET substrate (50 nM) and the combination is incubated for one hour. The FRET assay is terminated with by addition of Tris buffer, which raises the pH to neutrality, and the fluorescence is determined. The FRET substrate is a peptide with commercially available fluorophore and quencher, on opposite sides of the BACE cleavage site. Proteolytic cleavage of the FRET substrate releases quenching of fluorescence (excitation […] and […]).

Abeta 40 = assay: In vivo inhibition of beta-secretase: Abeta 40 reduction in CSF and brain of the rat; details: 10 mpk (unless otherwise noted), after 4 hrs
Excerpt: In Vivo Inhibition of Beta-Secretase
Several animal models, including mouse, rat, dog, and monkey, may be used to screen for inhibition of beta-secretase activity in vivo following administration of a test compound sample. Animals used in this invention can be wild type, transgenic, or gene knockout animals. […] One to twenty-four hours following the administration of compound, animals are sacrificed, and brains as well as cerebrospinal fluid (CSF) and plasma are removed for analysis of A-beta levels and drug or test compound concentrations (Dovey et al., 2001, Journal of Neurochemistry, 76, 173-181) Beginning at time 0, animals are administered by oral gavage, or other means of delivery such as intravenous injection, an inhibitory test compound of up to 100 mg/kg in a standard, conventional formulation, such as 2% hydroxypropyl methylcellulose, 1% Tween80. A separate group of animals receive 2% hydroxypropyl methylcellulose, 1% Tween80 alone, containing no test compound, and serve as a vehicle-control group. At the end of the test period, animals are sacrificed and brain tissues, plasma or cerebrospinal fluid are collected. Brains are either homogenized in 10 volumes (w/v) of 0.2% diethylamine (DEA) in 50 mM NaCl (Best et al., 2005, Journal of Pharmacology and Experimental Therapeutics, 313, 902-908), or in 10 volumes of 0.5% TritonX-100 in Tris-buffered saline (pH at about 7.6). Homogenates are centrifuged at 355,000 g, 4° C. for 30 minutes. CSF or brain supernatants are then analyzed for the presence of A-beta peptide by specific sandwich ELISA assays based on ECL (Electrochemiluminescence) technology. For example, rat Abeta40 is measured using biotinylated-4G8 (Signet) as a capture antibody and Fab40 (an in-house antibody specific to the C-terminal of Abeta40) as a detection antibody.
Actual vehicles used: Oral: 2% HPMC, 1% Tween80, pH 2.2

Sequence of Cathepsin D (Cat D) (P07339 65-412, species assumed): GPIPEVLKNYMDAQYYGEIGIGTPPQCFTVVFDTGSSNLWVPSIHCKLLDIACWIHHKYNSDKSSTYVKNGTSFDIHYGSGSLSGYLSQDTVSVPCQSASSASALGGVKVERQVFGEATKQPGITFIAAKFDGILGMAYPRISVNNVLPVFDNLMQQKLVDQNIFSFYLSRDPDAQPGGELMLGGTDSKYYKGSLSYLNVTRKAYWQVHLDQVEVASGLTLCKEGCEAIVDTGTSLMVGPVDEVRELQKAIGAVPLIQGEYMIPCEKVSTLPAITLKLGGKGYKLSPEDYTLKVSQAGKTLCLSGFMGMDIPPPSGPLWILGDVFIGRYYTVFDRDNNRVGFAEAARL
Sequence of Beta Secretase enzyme (BACE1) (P56817 46-501): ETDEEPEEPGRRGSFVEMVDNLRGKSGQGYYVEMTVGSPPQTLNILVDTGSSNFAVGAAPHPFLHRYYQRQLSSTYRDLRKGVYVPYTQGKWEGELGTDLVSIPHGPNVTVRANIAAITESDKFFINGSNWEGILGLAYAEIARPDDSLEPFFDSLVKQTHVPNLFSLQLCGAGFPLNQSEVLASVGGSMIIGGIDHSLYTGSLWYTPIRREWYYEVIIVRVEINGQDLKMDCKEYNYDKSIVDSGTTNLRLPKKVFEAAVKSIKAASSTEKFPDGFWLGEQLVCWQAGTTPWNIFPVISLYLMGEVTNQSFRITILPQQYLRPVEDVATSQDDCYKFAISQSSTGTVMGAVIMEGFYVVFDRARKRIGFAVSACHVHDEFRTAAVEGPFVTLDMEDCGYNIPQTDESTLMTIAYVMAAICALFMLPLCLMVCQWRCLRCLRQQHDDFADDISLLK

IC50 (Cathepsin D (Cat D)) [µM] | SMILES | % reduction of rat CSF levels at 10 pmk (Abeta 40) [%] | % reduction of rat brain levels at 10 mpk (Abeta 40) [%] | further results
> 400 | COc1cnc(C(=O)Nc2ccc(F)c([C@]3(C)CSCC(N)=N3)c2)cn1 [Example 43, (R)—N-(3-(5-amino-3-methyl-3,6-dihydro-2H-1,4-thiazin-3-yl)-4-fluorophenyl)-5-methoxypyrazine-2-carboxamide] |  |  | 
101 | COc1cnc2c(Nc3cnc(F)c([C@]4(C)CS(=O)(=O)C(C)(C)C(N)=N4)c3)nccc2c1 [Example 66, N-(5-((3R)-5-amino-3,6,6-trimethyl-1,1-dioxido-3,6-dihydro-2H-1,4-thiazin-3-yl)-6-fluoro-3-pyridinyl)-3-methoxy-1,7-naphthyridin-8-amine] |  |  | IC50 [1]: 0.0043 µM
11.3 | CC1(C)C(N)=N[C@](C)(c2cc(Nc3nccc4cc(Cl)cnc34)cc(F)c2F)CS1(=O)=O [Example 69, (R)-5-Amino-3-(5-((3-chloro-1,7-naphthyridin-8-yl)amino)-2,3-difluorophenyl)-3,6,6-trimethyl-3,6-dihydro-2H-1,4-thiazine 1,1-dioxide] |  |  | IC50 [1]: 0.0014 µM
400 | C[C@]1(c2cc(NC(=O)c3cnc(C(F)F)cn3)ccc2F)N=C(N)C2(CCC2)S(=O)(=O)[C@@H]1F [Example 140, N-(3-((6S,7R)-9-amino-6-fluoro-7-methyl-5,5-dioxido-5-thia-8-azaspiro[3.5]non-8-en-7-yl)-4-fluorophenyl)-5-(difluoromethyl)pyrazine-2-carboxamide] |  |  | 
322 | CC1(C)C(N)=NC2(c3cc(Br)ccc3F)COCC2S1(=O)=O (stereo not shown) [Example 185, 3-amino-4a-(5-bromo-2-fluorophenyl)-2,2-dimethyl-4a,5,7,7a-tetrahydro-2H-furo[3,4-b][1,4]thiazine 1,1-dioxide] |  |  | IC50 ([1]; average IC50, enzyme assay): 30.2 µM
70.9 | CC1(C)C(N)=N[C@@]2(c3cc(Br)ccc3F)COC[C@H]2S1(=O)=O [Example 185a, (4aS,7aS)-3-amino-4a-(5-bromo-2-fluorophenyl)-2,2-dimethyl-4a,5,7,7a-tetrahydro-2H-furo[3,4-b][1,4]thiazine 1,1-dioxide] |  |  | IC50 ([1]; average IC50, enzyme assay): 4.83 µM
> 400 | CC1(C)C(N)=N[C@]2(c3cc(Br)ccc3F)COC[C@@H]2S1(=O)=O [Example 185b, (4aR,7aR)-3-amino-4a-(5-bromo-2-fluorophenyl)-2,2-dimethyl-4a,5,7,7a-tetrahydro-2H-furo[3,4-b][1,4]thiazine 1,1-dioxide] |  |  | IC50 ([1]; average IC50, enzyme assay): > 40 µM
 | CC1(C)C(N)=N[C@@]2(c3cc(N)ccc3F)COC[C@H]2S1(=O)=O [Example 185c, (4aS,7aS)-3-amino-4a-(5-amino-2-fluorophenyl)-2,2-dimethyl-4a,5,7,7a-tetrahydro-2H-furo[3,4-b][1,4]thiazine 1,1-dioxide] |  |  | IC50 ([1]; average IC50, enzyme assay): > 40 µM; IC50 (Cathepsin D (Cat D); Cathepsin D FRET assay): > 400 µM
 | CC1(C)C(N)=N[C@]2(c3cc(N)ccc3F)COC[C@@H]2S1(=O)=O [Example 185d, (4aR,7aR)-3-amino-4a-(5-amino-2-fluorophenyl)-2,2-dimethyl-4a,5,7,7a-tetrahydro-2H-furo[3,4-b][1,4]thiazine 1,1-dioxide] |  |  | IC50 ([1]; average IC50, enzyme assay): 3.83 µM; IC50 (Cathepsin D (Cat D); Cathepsin D FRET assay): 152 µM
 | CC1(C)C(N)=N[C@](C)(c2cc(NC(=O)c3ccc(Cl)cn3)cnc2F)CS1(=O)=O [Example 398, N-(5-((3R)-5-amino-3,6,6-trimethyl-1,1-dioxido-3,6-dihydro-2H-1,4-thiazin-3-yl)-6-fluoro-3-pyridinyl)-5-chloro-2-pyridinecarboxamide] | 63 | 39 | 
 | Cc1cc(OC(F)F)cnc1C(=O)Nc1cnc(F)c([C@]2(C)CS(=O)(=O)C(C)(C)C(N)=N2)c1 [Example 400, N-(5-((3R)-5-amino-3,6,6-trimethyl-1,1-dioxido-3,6-dihydro-2H-1,4-thiazin-3-yl)-6-fluoro-3-pyridinyl)-5-(difluoromethoxy)-3-methyl-2-pyridinecarboxamide] | 58 | 25 | 
 | COc1ccc(C(=O)Nc2cnc(F)c([C@]3(C)CS(=O)(=O)C(C)(C)C(N)=N3)c2)nc1 [Example 401, N-(5-((3R)-5-amino-3,6,6-trimethyl-1,1-dioxido-3,6-dihydro-2H-1,4-thiazin-3-yl)-6-fluoro-3-pyridinyl)-5-methoxy-2-pyridinecarboxamide] | 69 | 48 | 
 | CC1(C)C(N)=N[C@](C)(c2cc(NC(=O)c3cnc(OCC(F)(F)F)cn3)cnc2F)CS1(=O)=O [Example 402, N-(5-((3R)-5-amino-3,6,6-trimethyl-1,1-dioxido-3,6-dihydro-2H-1,4-thiazin-3-yl)-6-fluoro-3-pyridinyl)-5-(2,2,2-trifluoroethoxy)-2-pyrazinecarboxamide] | 43 | 10 | 
 | Cc1cc(Cl)cnc1C(=O)Nc1ccc(F)c([C@]2(CF)CS(=O)(=O)C(C)(C)C(N)=N2)c1 [Example 408, N-(3-((3S)-5-amino-3-(fluoromethyl)-6,6-dimethyl-1,1-dioxido-3,6-dihydro-2H-1,4-thiazin-3-yl)-4-fluorophenyl)-5-chloro-3-methyl-2-pyridinecarboxamide] | 62 | 37 | 
 | Cc1cc(OC(F)F)cnc1C(=O)Nc1ccc(F)c([C@]2(CF)CS(=O)(=O)C3(CCC3)C(N)=N2)c1 [Example 412, N-(3-((7S)-9-amino-7-(fluoromethyl)-5,5-dioxido-5-thia-8-azaspiro[3.5]non-8-en-7-yl)-4-fluorophenyl)-5-(difluoromethoxy)-3-methyl-2-pyridinecarboxamide] | 52 | 33 | 
 | COc1cnc2c(Nc3ccc(F)c([C@]4(CF)CS(=O)(=O)C(C)(C)C(N)=N4)c3)nccc2n1 [Example 447, N-(3-((3S)-5-amino-3-(fluoromethyl)-6,6-dimethyl-1,1-dioxido-3,6-dihydro-2H-1,4-thiazin-3-yl)-4-fluorophenyl)-2-methoxypyrido[3,4-b]pyrazin-5-amine] | 62 | 42 | 
 | COc1ccc(C(=O)Nc2ccc(F)c([C@]3(CF)CS(=O)(=O)C(C)(C)C(N)=N3)c2)nc1 [Example 457, N-(3-((3S)-5-amino-3-(fluoromethyl)-6,6-dimethyl-1,1-dioxido-3,6-dihydro-2H-1,4-thiazin-3-yl)-4-fluorophenyl)-5-methoxy-2-pyridinecarboxamide] | 67 | 50 | 
 | COCc1cc(Cl)cnc1C(=O)Nc1ccc(F)c([C@]2(CF)CS(=O)(=O)C(C)(C)C(N)=N2)c1 [Example 458, N-(3-((3S)-5-amino-3-(fluoromethyl)-6,6-dimethyl-1,1-dioxido-3,6-dihydro-2H-1,4-thiazin-3-yl)-4-fluorophenyl)-5-chloro-3-(methoxymethyl)-2-pyridinecarboxamide] | 35 | 8 | 
